{
  "source": "paper PMC11394002",
  "about": "“5-Aminothiazoles Reveal a New Ligand-Binding Site on Prolyl Oligopeptidase Which is Important for Modulation of Its Protein–Protein Interaction-Derived Functions” (Journal of Medicinal Chemistry, 2024)",
  "key": {"[1]": {"test_system": "HEK-293 cells stably expressing GFP-LC3B", "test": "Autophagic flux assay (GFP signal)", "assay_type": "cell-based, human"}, "[2]": {"test_system": "αSyn dimerization in Neuro2A cells", "test": "α-Synuclein dimerization assay (split Gaussia luciferase PCA)", "assay_type": "cell-based, mouse"}, "[3]": {"test_system": "αSyn dimerization in Neuro2A cells", "settings": "luminescence signal percentage of DMSO control with SEM, cited from earlier work"}, "[4]": {"test_system": "HEK-293 cells stably expressing GFP-LC3B", "settings": "GFP signal percentage of DMSO control with SEM, ref 16 or 19; cited from earlier work"}},
  "note": "Read-outs that look alike come from different tables or passages of the source.",
  "data": [
    {"smiles": "CC(C)c1nc(CCc2c[nH]c3ccccc23)sc1N1CCCC1", "note": "[Compound 16k, 2-(2-(1H-Indol-3-yl)ethyl)-4-isopropyl-5-(pyrrolidin-1-yl)thiazole]", "values": [
      {"measurement": "effect on autophagy (in words)", "setting": "[1]; 10 μM, SAR discussion", "value": "loss of activity"},
      {"measurement": "effect on αSyn dimerization (in words)", "setting": "[2]; 10 μM, SAR discussion", "value": "loss of activity"}
    ]},
    {"smiles": "Cc1nc(CCCc2ccccc2)sc1N1CCC[C@H]1C#N", "note": "[HUP-46, (S)-1-(4-Methyl-2-(3-phenylpropyl)thiazol-5-yl)pyrrolidine-2-carbonitrile]", "values": [
      {"measurement": "autophagic flux, concentration–response", "setting": "[1]", "value": "concentration-dependent up to 20 μM"},
      {"measurement": "concentration of maximal efficacy in the αSyn dimerization assay", "setting": "[2]", "value": 10, "unit": "µM"}
    ]},
    {"smiles": "Cc1nc(CCCc2ccccc2)oc1N1CCC[C@H]1C#N", "note": "[HUP-55]", "values": [
      {"measurement": "αSyn dimerization at 10 μM", "setting": "[3]", "value": "85 ± 2", "unit": "%"}
    ]},
    {"smiles": "CO[C@H]1C[C@@H]2CC[C@@H](C)[C@@](O)(O2)C(=O)C(=O)N2CCCC[C@H]2C(=O)O[C@H]([C@H](C)C[C@@H]2CC[C@@H](O)[C@H](OC)C2)CC(=O)[C@H](C)/C=C(\\C)[C@@H](O)[C@@H](OC)C(=O)[C@H](C)C[C@H](C)/C=C/C=C/C=C/1C", "note": "[Rapamycin]", "values": [
      {"measurement": "GFP signal of the baseline", "setting": "[1]; rapamycin positive control (0.5 μM), maximum effect in this assay", "value": "about 65%"}
    ]},
    {"smiles": "C[C@H](NC(=O)CCCc1ccccc1)C(=O)N1CCC[C@H]1c1nnn[nH]1", "note": "[HUP-28]", "values": [
      {"measurement": "αSyn dimerization at 10 μM", "setting": "[3]; ref 16 or 19", "value": "75 ± 5", "unit": "%"},
      {"measurement": "autophagy at 10 μM", "setting": "[4]", "value": "71 ± 6", "unit": "%"}
    ]}
  ]
}
